For series [1], the system named is Mus musculus. Briefly: Hypoglycemic activity in lean normal BALB/c mouse assessed as blood glucose level at 0.5 mmol/kg/day administered through diet for 7 days relative to time-matched control. It is filed as functional.
Series [2] has as its system Mus musculus. As to the kind of experiment: Antiobesity activity in lean normal BALB/c mouse assessed as change in average daily food intake at 0.5 mmol/kg/day administered through diet for 7 days relative to time-matched control. The series is classed as functional.
In series [3] the test system is Mus musculus. Briefly: Antiobesity activity in lean normal BALB/c mouse assessed as change in average daily weight at 0.5 mmol/kg/day administered through diet for 7 days relative to time-matched control. It is filed as functional.
The subject of series [4] is Mus musculus. Briefly: Toxicity in lean normal BALB/c mouse assessed as overt signs of behavioural changes at equimolar dose of 0.5 mmol/kg galegine administered daily through diet for 7 days. The series is classed as organism-based. The conditions noted are these: in vivo, po, 168 h.
The test system of series [5] is Mus musculus. As to the kind of experiment: Antiobesity activity in ob/ob mouse model assessed as change in average daily weight at 0.26 mmol/kg/day administered through diet for 28 days relative to time-matched control. The series is classed as functional.
For series [6], the system named is Mus musculus. As to the kind of experiment: Antiobesity activity in ob/ob mouse model assessed as change in average daily food intake at 0.26 mmol/kg/day administered through diet for 28 days relative to time-matched control. The series is classed as functional.
Series [7] relates to Mus musculus. Briefly: Hypoglycemic activity in ob/ob mouse model assessed as blood glucose level at 0.26 mmol/kg/day administered through diet for 28 days relative to time-matched control. The series is classed as functional.
The test system of series [8] is Mus musculus. Briefly: Antiobesity activity in high fat diet-induced obese BALB/c mouse model assessed as change in average daily body weight at 0.38 mmol/kg/day administered through diet for 28 days relative to time-matched control. The series is classed as functional.
In series [9] the test system is Mus musculus. As to the kind of experiment: Antiobesity activity in high fat diet-induced obese BALB/c mouse model assessed as change in average daily food intake at 0.38 mmol/kg/day administered through diet for 28 days relative to time-matched control. The series is classed as functional.
In series [10] the test system is Mus musculus. Briefly: Hypoglycemic activity in high fat diet-induced obese BALB/c mouse model assessed as blood glucose level at 0.38 mmol/kg/day administered through diet for 28 days relative to time-matched control. It is filed as functional.
Series [11] has as its system Mus musculus. Briefly: Antiobesity activity in lean normal BALB/c mouse assessed as change in average daily food intake at 0.59 mmol/kg/day administered through diet for 7 days relative to time-matched control. The series is classed as functional.
In series [12] the test system is Mus musculus. As to the kind of experiment: Hypoglycemic activity in lean normal BALB/c mouse assessed as blood glucose level at 0.59 mmol/kg/day administered through diet for 7 days relative to time-matched control. The series is classed as functional.
Series [13] deals with Mus musculus. As to the kind of experiment: Antiobesity activity in lean normal BALB/c mouse assessed as change in average daily weight at 0.59 mmol/kg/day administered through diet for 7 days relative to time-matched control. It is filed as functional.
The subject of series [14] is Mus musculus. Briefly: Antiobesity activity in ob/ob mouse model assessed as change in average daily weight at 0.24 mmol/kg/day administered through diet for 28 days relative to time-matched control. The series is classed as functional.
For series [15], the system named is Mus musculus. As to the kind of experiment: Antiobesity activity in ob/ob mouse model assessed as change in average daily food intake at 0.24 mmol/kg/day administered through diet for 28 days relative to time-matched control. The series is classed as functional.
Series [16] has as its system Mus musculus. As to the kind of experiment: Hypoglycemic activity in ob/ob mouse model assessed as blood glucose level at 0.24 mmol/kg/day administered through diet for 28 days relative to time-matched control. The series is classed as functional.
Series [17] has as its system Mus musculus. As to the kind of experiment: Antiobesity activity in high fat diet-induced obese BALB/c mouse model assessed as change in average daily body weight at 0.42 mmol/kg/day administered through diet for 28 days relative to time-matched control. It is filed as functional.
For series [18], the system named is Mus musculus. Briefly: Antiobesity activity in high fat diet-induced obese BALB/c mouse model assessed as change in average daily food intake at 0.42 mmol/kg/day administered through diet for 28 days relative to time-matched control. The series is classed as functional.
Series [19] has as its system Mus musculus. Briefly: Hypoglycemic activity in high fat diet-induced obese BALB/c mouse model assessed as blood glucose level at 0.42 mmol/kg/day administered through diet for 28 days relative to time-matched control. It is filed as functional.
Series [20] has as its system Mus musculus. Briefly: Hypoglycemic activity in lean normal BALB/c mouse assessed as blood glucose level at 0.54 mmol/kg/day administered through diet for 7 days relative to time-matched control. It is filed as functional.
Series [21] deals with Mus musculus. As to the kind of experiment: Antiobesity activity in lean normal BALB/c mouse assessed as change in average daily food intake at 0.54 mmol/kg/day administered through diet for 7 days relative to time-matched control. It is filed as functional.
The test system of series [22] is Mus musculus. Briefly: Antiobesity activity in lean normal BALB/c mouse assessed as change in average daily weight at 0.54 mmol/kg/day administered through diet for 7 days relative to time-matched control. The series is classed as functional.
Series [23] is described as follows: Metabolic stability in ob/ob mouse liver microsomes assessed as oxidative hydroxylation at 50 uM after 45 mins by HPLC-MS analysis. It is filed as ADME, Microsome. The conditions noted are these: 0.75 h.
Series [24] concerns Mus musculus. As to the kind of experiment: Antiobesity activity in high fat diet-induced obese BALB/c mouse model assessed as change in average daily body weight at 0.43 mmol/kg/day administered through diet for 28 days relative to time-matched control. The series is classed as functional.
Series [25] deals with Mus musculus. Briefly: Antiobesity activity in high fat diet-induced obese BALB/c mouse model assessed as change in average daily food intake at 0.43 mmol/kg/day administered through diet for 28 days relative to time-matched control. It is filed as functional.
The test system of series [26] is Mus musculus. Briefly: Hypoglycemic activity in high fat diet-induced obese BALB/c mouse model assessed as blood glucose level at 0.43 mmol/kg/day administered through diet for 28 days relative to time-matched control. The series is classed as functional.
For series [27], the system named is Mus musculus. Briefly: Antiobesity activity in lean normal BALB/c mouse assessed as change in average daily food intake at 0.40 mmol/kg/day administered through diet for 7 days relative to time-matched control. The series is classed as functional.
In series [28] the test system is Mus musculus. As to the kind of experiment: Hypoglycemic activity in lean normal BALB/c mouse assessed as blood glucose level at 0.40 mmol/kg/day administered through diet for 7 days relative to time-matched control. It is filed as functional.
Series [29] relates to Mus musculus. As to the kind of experiment: Antiobesity activity in lean normal BALB/c mouse assessed as change in average daily weight at 0.40 mmol/kg/day administered through diet for 7 days relative to time-matched control. It is filed as functional.
Series [30] relates to Mus musculus. Briefly: Hypoglycemic activity in lean normal BALB/c mouse assessed as blood glucose level at 0.62 mmol/kg/day administered through diet for 7 days relative to time-matched control. The series is classed as functional.
The test system of series [31] is Mus musculus. Briefly: Antiobesity activity in lean normal BALB/c mouse assessed as change in average daily food intake at 0.62 mmol/kg/day administered through diet for 7 days relative to time-matched control. It is filed as functional.
Series [32] deals with Mus musculus. Briefly: Antiobesity activity in lean normal BALB/c mouse assessed as change in average daily weight at 0.62 mmol/kg/day administered through diet for 7 days relative to time-matched control. It is filed as functional.
In series [33] the test system is Mus musculus. Briefly: Antiobesity activity in ob/ob mouse model assessed as change in average daily weight at 0.27 mmol/kg/day administered through diet for 28 days relative to time-matched control. It is filed as functional.
Series [34] relates to Mus musculus. As to the kind of experiment: Antiobesity activity in ob/ob mouse model assessed as change in average daily food intake at 0.27 mmol/kg/day administered through diet for 28 days relative to time-matched control. The series is classed as functional.
The test system of series [35] is Mus musculus. Briefly: Hypoglycemic activity in ob/ob mouse model assessed as blood glucose level at 0.27 mmol/kg/day administered through diet for 28 days relative to time-matched control. The series is classed as functional.
Series [36] concerns Mus musculus. As to the kind of experiment: Antiobesity activity in high fat diet-induced obese BALB/c mouse model assessed as change in average daily body weight at 0.45 mmol/kg/day administered through diet for 28 days relative to time-matched control. The series is classed as functional.
The test system of series [37] is Mus musculus. As to the kind of experiment: Antiobesity activity in high fat diet-induced obese BALB/c mouse model assessed as change in average daily food intake at 0.45 mmol/kg/day administered through diet for 28 days relative to time-matched control. It is filed as functional.
Series [38] concerns Mus musculus. As to the kind of experiment: Hypoglycemic activity in high fat diet-induced obese BALB/c mouse model assessed as blood glucose level at 0.45 mmol/kg/day administered through diet for 28 days relative to time-matched control. It is filed as functional.

These results are taken from ChEMBL document CHEMBL1136921, “Benzylguanidines and other galegine analogues inducing weight loss in mice” (J Med Chem, 2009).

As to `CC(C)=CCN=C(N)N` [GALEGINE], the Activity is 53% with Mus musculus [1]; -36.3% in the series with Mus musculus [2]; -16.6% with Mus musculus [3]; “Non-toxic” with Mus musculus [4]; -7.3% in the series with Mus musculus [5]; -29.2% with Mus musculus [6]. Besides, the Activity in the series on Mus musculus [7] was 91%; in the series on Mus musculus [8] it was -9%; with Mus musculus [9], -23.6%; in the series on Mus musculus [10] it was 77%.
As to `N=C(N)NCc1ccc(Cl)cc1`, the Activity with Mus musculus [11] is -34.7%; in the series with Mus musculus [12] it was 59%; in the series with Mus musculus [13], -19.7%; in the series on Mus musculus [4] it was “Non-toxic”; with Mus musculus [14] it was -11%; in the series on Mus musculus [15], -38.5%. For the same molecule, the Activity in the series on Mus musculus [16] is given as 71%; with Mus musculus [17], -7.3%; in the series on Mus musculus [18] it was -15.6%; with Mus musculus [19], 94%.
Take `N=C(N)NCc1ccccc1`: the Activity in the series with Mus musculus [20] is 60%; in the series on Mus musculus [21], -28.1%; in the series with Mus musculus [22], -10.4%; in the series with Mus musculus [4], “Non-toxic”; in the series with Mus musculus [5], -6.8%; in the series with Mus musculus [6], -29.3%. Also, the Activity entry in series [23] is given as “Stable”; with Mus musculus [7], 82%; in the series on Mus musculus [24], -10.6%; in the series on Mus musculus [25], -14.9%; in the series with Mus musculus [26], 90%.
For the molecule `N=C(N)NCc1ccc(Cl)c(Cl)c1`, the Activity is -38.3% in the series on Mus musculus [27], 67% with Mus musculus [28], -9.9% in the series on Mus musculus [29] and “Non-toxic” in the series with Mus musculus [4].
In the case of `N=C(N)NCc1ccc(F)cc1`, the Activity with Mus musculus [30] is 56%; in the series on Mus musculus [31], -27.8%; in the series with Mus musculus [32] it was -14.7%; in the series with Mus musculus [4] it was “Non-toxic”; with Mus musculus [33], -8.7%; with Mus musculus [34], -26.8%. Further, the Activity is given as 102% in the series on Mus musculus [35], -7.8% in the series with Mus musculus [36], -9.8% in the series with Mus musculus [37] and 93% in the series with Mus musculus [38].
